Laboratory results: PMC11045764, “The dual coding of a single sex pheromone receptor in Asian honeybee Apis cerana” (Communications Biology, 2024)
pEC50: −log10 of the molar value.

Experiments:
AcerOr11 [1] = tested on: T1, AcerOr11; assay: two-electrode voltage clamp in Xenopus oocytes (inverse currents; also inhibits 9-ODA-evoked currents); format: cell-based, Apis cerana
T1 construct: gene Or11; AcerOr11 co-expressed with AcerOrco in Xenopus laevis oocytes; with AcerOrco

AcerOr11 [2] = tested on: T1, AcerOr11; assay: two-electrode voltage clamp in Xenopus oocytes (agonist, dose-response and I-V curves); format: cell-based, Apis cerana

SMILES | pEC50 (AcerOr11 [1]) | pEC50 (AcerOr11 [2])
COC(=O)c1ccc(O)cc1 [HOB, methyl p-hydroxybenzoate] | 6.82 | –
CC(=O)CCCCC/C=C/C(=O)O [9-ODA, 9-oxo-(E)-2-decenoic acid] | – | 9.46
